{
  "source": "patent US20210262029A1",
  "about": "“TREATMENT OF KCNQ2 AND KCNQ3 GAIN OF FUNCTION-ASSOCIATED DISORDERS” (The Trustees of Columbia University in the City of New York, priority 2018, published 2021)",
  "key": {"[1]": {"target": "KCNQ3 R2C (Homo sapiens, UniProt O43525, R230C)", "sequence (O43525 whole entry R230C)": "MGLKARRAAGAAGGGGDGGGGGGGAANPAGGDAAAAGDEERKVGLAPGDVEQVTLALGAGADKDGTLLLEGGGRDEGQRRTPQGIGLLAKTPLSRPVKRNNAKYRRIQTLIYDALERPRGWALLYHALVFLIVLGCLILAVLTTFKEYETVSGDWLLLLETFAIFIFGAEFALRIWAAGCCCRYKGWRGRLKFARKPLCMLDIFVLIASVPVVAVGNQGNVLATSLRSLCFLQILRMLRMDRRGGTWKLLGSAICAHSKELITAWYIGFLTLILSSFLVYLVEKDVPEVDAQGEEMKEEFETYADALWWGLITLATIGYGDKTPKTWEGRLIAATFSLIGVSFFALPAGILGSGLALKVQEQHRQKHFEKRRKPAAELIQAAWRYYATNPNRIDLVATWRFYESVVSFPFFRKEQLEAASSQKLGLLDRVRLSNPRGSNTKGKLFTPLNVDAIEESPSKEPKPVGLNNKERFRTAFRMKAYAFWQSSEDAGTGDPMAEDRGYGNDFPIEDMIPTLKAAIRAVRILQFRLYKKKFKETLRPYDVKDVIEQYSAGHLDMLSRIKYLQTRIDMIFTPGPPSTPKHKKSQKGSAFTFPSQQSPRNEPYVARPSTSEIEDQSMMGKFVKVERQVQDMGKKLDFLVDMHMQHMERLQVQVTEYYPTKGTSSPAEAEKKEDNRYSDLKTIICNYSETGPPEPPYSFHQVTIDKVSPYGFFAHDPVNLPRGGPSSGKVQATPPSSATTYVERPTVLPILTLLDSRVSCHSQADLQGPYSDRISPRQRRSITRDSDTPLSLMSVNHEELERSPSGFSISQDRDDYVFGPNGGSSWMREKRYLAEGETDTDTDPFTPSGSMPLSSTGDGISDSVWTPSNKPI", "conditions": "30 mM TEA; homomeric KCNQ3 R2C (R230C); CHO cells", "description": "(§1) Variants were introduced in KCNQ3 human cDNA cloned into pcDNA3.1 by QuikChange site-directed mutagenesis (Agilent Technologies, Milan, Italy), as previously described.^12 Channel subunits were expressed in Chinese hamster ovary (CHO) cells by transient transfection using Lipofectamine 2000 (Invitrogen, Carlsbad, Calif.) according to the manufacturer's protocol.^17 A plasmid encoding enhanced green fluorescent protein (Clontech Laboratories, Mountain View, Calif.) was used as a transfection marker; total cDNA in the transfection mixture was kept constant at 4 μg.\n(§2) Currents were recorded under whole-cell patch-clamp at room temperature (20-22° C.) 1 to 2 days after transfection as reported.^12 Current densities (expressed in pA/pF) were calculated as peak K^+ currents at 0 mV divided by cell capacitance. To generate conductance-voltage curves, the cells were held at −80 mV, then depolarized for 1.5 seconds from ˜120 to +20 mV in 10 mV increments, followed by an isopotential pulse at 0 mV of 300-millisecond duration. The current values recorded at the beginning of the 0 mV pulse were measured, normalized, and expressed as a function of the preceding voltages. The data were then fit to a Boltzmann distribution of the following form: y=max/[1+exp(V½−V)/k], where V is the test potential, V½ the half-activation potential, and k the slope factor."}, "[2]": {"target": "KCNQ3 R2S (Homo sapiens, UniProt O43525, R230S)", "sequence (O43525 whole entry R230S)": "as the sequence (O43525 whole entry R230C) above, with C230S counted along it", "conditions": "30 mM TEA; homomeric KCNQ3 R2S (R230S); CHO cells", "description": "as §1, §2"}, "[3]": {"target": "KCNQ3 (Homo sapiens, UniProt O43525)", "sequence (O43525 whole entry)": "as the sequence (O43525 whole entry R230C) above, with C230R counted along it", "conditions": "homomeric KCNQ3 wild type, CHO cells", "description": "as §1, §2"}, "[4]": {"target": "KCNQ3 R1Q (Homo sapiens, UniProt O43525, R227Q)", "sequence (O43525 whole entry R227Q)": "as the sequence (O43525 whole entry R230C) above, with R227Q, C230R counted along it", "conditions": "30 mM TEA; homomeric KCNQ3 R1Q (R227Q); CHO cells", "description": "as §1, §2"}, "[5]": {"target": "KCNQ3 R2H (Homo sapiens, UniProt O43525, R230H)", "sequence (O43525 whole entry R230H)": "as the sequence (O43525 whole entry R230C) above, with C230H counted along it", "conditions": "30 mM TEA; homomeric KCNQ3 R2H (R230H); CHO cells", "description": "as §1, §2"}, "[6]": {"tested_on": "KCNQ2 + KCNQ3 + KCNQ3 R2C", "conditions": "KCNQ2 + KCNQ3 + KCNQ3 R2C 1:0.5:0.5, CHO cells", "description": "(§3) To mimic the genetic condition of patients, who carry a single mutant allele, and considering that IKM in adult neurons is mainly formed by tetrameric co-assembly of KCNQ2 and KCNQ3 subunits, we transfected CHO cells with KCNQ2 and KCNQ3 cDNAs in a 1:1 ratio (to mimic the genetic balance of normal individuals), and KCNQ2+KCNQ3+mutant KCNQ3 1:0.5:0.5 ratio (to mimic the genetic balance of affected individuals).\nas §1, §2"}, "[7]": {"tested_on": "KCNQ2 + KCNQ3 + KCNQ3 R2H", "conditions": "KCNQ2 + KCNQ3 + KCNQ3 R2H 1:0.5:0.5, CHO cells", "description": "as §3, §1, §2"}, "[8]": {"tested_on": "KCNQ2 + KCNQ3 + KCNQ3 R2S", "conditions": "KCNQ2 + KCNQ3 + KCNQ3 R2S 1:0.5:0.5, CHO cells", "description": "as §3, §1, §2"}, "[9]": {"target": "KCNQ2 + KCNQ3 (Homo sapiens, UniProt O43525+O43526)", "sequence (O43526 1-844 isoform O43526-3)": "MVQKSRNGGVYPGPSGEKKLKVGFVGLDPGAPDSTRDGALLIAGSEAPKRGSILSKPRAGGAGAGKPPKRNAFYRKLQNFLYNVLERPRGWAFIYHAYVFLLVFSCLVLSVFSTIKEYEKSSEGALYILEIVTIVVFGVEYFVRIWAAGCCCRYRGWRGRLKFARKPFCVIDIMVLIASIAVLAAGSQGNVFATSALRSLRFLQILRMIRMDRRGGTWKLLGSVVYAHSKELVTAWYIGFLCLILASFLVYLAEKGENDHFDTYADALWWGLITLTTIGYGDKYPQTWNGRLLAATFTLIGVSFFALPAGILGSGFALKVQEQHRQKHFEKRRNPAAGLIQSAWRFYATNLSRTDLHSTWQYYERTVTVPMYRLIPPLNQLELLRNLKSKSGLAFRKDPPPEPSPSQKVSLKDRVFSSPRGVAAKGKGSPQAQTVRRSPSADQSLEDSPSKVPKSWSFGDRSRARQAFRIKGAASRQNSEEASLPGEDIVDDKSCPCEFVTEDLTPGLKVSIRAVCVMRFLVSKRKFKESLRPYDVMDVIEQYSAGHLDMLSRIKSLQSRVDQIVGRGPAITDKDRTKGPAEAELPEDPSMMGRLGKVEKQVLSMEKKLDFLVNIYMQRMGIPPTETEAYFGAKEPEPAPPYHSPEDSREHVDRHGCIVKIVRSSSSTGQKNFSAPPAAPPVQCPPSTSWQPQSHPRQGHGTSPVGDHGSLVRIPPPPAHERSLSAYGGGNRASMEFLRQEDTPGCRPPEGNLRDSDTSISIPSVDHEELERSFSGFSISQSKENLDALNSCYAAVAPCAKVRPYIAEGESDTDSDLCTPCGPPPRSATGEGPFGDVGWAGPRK", "sequence (O43525 whole entry)": "as the sequence (O43525 whole entry R230C) above, with C230R counted along it", "conditions": "KCNQ2 + KCNQ3 1:1, CHO cells", "description": "as §3, §1, §2"}, "[10]": {"tested_on": "KCNQ2 + KCNQ3 + KCNQ3 R1Q", "conditions": "KCNQ2 + KCNQ3 + KCNQ3 R1Q 1:0.5:0.5, CHO cells", "description": "as §3, §1, §2"}},
  "data": [
    {"compound": "CC[N+](CC)(CC)CC", "note": "[TEA, tetraethylammonium]", "values": [
      {"measurement": "Blockade by TEA, % 30 mM", "setting": "[1]", "value": "58.6 ± 13", "unit": "%"},
      {"measurement": "Blockade by TEA, % 30 mM", "setting": "[2]", "value": "66.1 ± 6.1", "unit": "%"},
      {"measurement": "Blockade by TEA, % 0.3 mM", "setting": "[3]; 0.3 mM TEA", "value": "6.4 ± 1.8", "unit": "%"},
      {"measurement": "Blockade by TEA, % 3 mM", "setting": "[3]; 3 mM TEA", "value": "13.0 ± 3.4", "unit": "%"},
      {"measurement": "Blockade by TEA, % 30 mM", "setting": "[3]; 30 mM TEA", "value": "61.7 ± 5.7", "unit": "%"},
      {"measurement": "Blockade by TEA, % 30 mM", "setting": "[4]", "value": "61.1 ± 6.8", "unit": "%"},
      {"measurement": "Blockade by TEA, % 30 mM", "setting": "[5]", "value": "70.9 ± 7.3", "unit": "%"},
      {"measurement": "Blockade by TEA, % 0.3 mM", "setting": "[6]; 0.3 mM TEA", "value": "14.0 ± 6.2", "unit": "%"},
      {"measurement": "Blockade by TEA, % 3 mM", "setting": "[6]; 3 mM TEA", "value": "47.1 ± 9.9", "unit": "%"},
      {"measurement": "Blockade by TEA, % 30 mM", "setting": "[6]; 30 mM TEA", "value": "77.0 ± 7.3", "unit": "%"},
      {"measurement": "Blockade by TEA, % 0.3 mM", "setting": "[7]; 0.3 mM TEA", "value": "20.8 ± 3.1", "unit": "%"},
      {"measurement": "Blockade by TEA, % 3 mM", "setting": "[7]; 3 mM TEA", "value": "47.4 ± 2.5", "unit": "%"},
      {"measurement": "Blockade by TEA, % 30 mM", "setting": "[7]; 30 mM TEA", "value": "78.8 ± 3.2", "unit": "%"},
      {"measurement": "Blockade by TEA, % 0.3 mM", "setting": "[8]; 0.3 mM TEA", "value": "12.9 ± 2.3", "unit": "%"},
      {"measurement": "Blockade by TEA, % 3 mM", "setting": "[8]; 3 mM TEA", "value": "43.6 ± 8.2", "unit": "%"},
      {"measurement": "Blockade by TEA, % 30 mM", "setting": "[8]; 30 mM TEA", "value": "80.1 ± 6.5", "unit": "%"},
      {"measurement": "Blockade by TEA, % 0.3 mM", "setting": "[9]; 0.3 mM TEA", "value": "15.6 ± 3.1", "unit": "%"},
      {"measurement": "Blockade by TEA, % 3 mM", "setting": "[9]; 3 mM TEA", "value": "50.5 ± 3.1", "unit": "%"},
      {"measurement": "Blockade by TEA, % 30 mM", "setting": "[9]; 30 mM TEA", "value": "78.8 ± 5.6", "unit": "%"},
      {"measurement": "Blockade by TEA, % 0.3 mM", "setting": "[10]; 0.3 mM TEA", "value": "19.3 ± 2.0", "unit": "%"},
      {"measurement": "Blockade by TEA, % 3 mM", "setting": "[10]; 3 mM TEA", "value": "44.1 ± 4.3", "unit": "%"},
      {"measurement": "Blockade by TEA, % 30 mM", "setting": "[10]; 30 mM TEA", "value": "85.3 ± 2.1", "unit": "%"}
    ]}
  ]
}
